From patent publication US20240082433A1, “TUMOR RESECTION PROCESS AND COMPOSITION CONTAINING IRIDIUM-CONTAINING NUCLEOSIDE” (Cleveland State University, priority 2022, published 2024)

What was measured:
brain cancer cells (U87) [1] = assay: Uptake/fluorescence imaging in 3D and 2D U87 brain cancer cell culture; format: cell-based, human
Protocol: To improve the imaging capabilities of this class of compound, additional analogs corresponding to Ir(III)-BZQ nucleoside and Ir(III)-PBO nucleoside (FIG. 5) were synthesized and tested for uptake using 3-dimensional cell culture techniques. […] Fluorescent microscopy was used to investigate the uptake of each nucleoside in which cells were treated with 1 μM of each compound for 24 hours. […] This conclusion is based on the more intense fluorescent signal observed in cells treated with Ir(III)-BZQ nucleoside that accurately defines the overall 3-dimensional shape of the cancerous mass. In particular, the overall intensity in green fluorescence caused by the uptake of Ir(III)-BZQ nucleoside is about 5 times greater than observed in cells treated with equivalent concentrations of Ir(III)-PPY nucleoside. […] While this represents an interesting phenomenon, this behavior precludes the ability of Ir(III)-PBO nucleoside to function as a “tumor margin” imaging agents since there is no defined outline of the cancerous mass.
(§1) Fluorescent microscopy techniques were used to measure both red and green fluorescence associated with the cellular uptake of the analog over a three (3) day treatment period. […] The fluorescent signals are only observed in the 3D cancerous masses, thus making them easily identifiable at low magnification (10×).
FIG. 10 compares fluorescence activity of Ir(III)-BZQ nucleoside with Indocyanine green at a fixed concentration of 10 μM. Images were taken comparing fluorescence emission in the red (600-700 nm) and green spectral range (500-600 nm) after 24 hours post-treatment.

brain cancer cells (U87) [2] = assay: Cell-killing effects against 2D and 3D U87 brain cancer cells by microscopy; format: cell-based, human; details: for cell-killing / therapeutic activity: U87 3D masses and 2D cells, 10 μM
Protocol: FIG. 7 illustrates the time-dependent uptake and cell-killing effects of Ir(III)-BZQ nucleoside (10 μM) against 2D and 3D brain cancer cells.
as §1

normal fibroblasts [3] = assay: LD50 in 2D cell culture, normal fibroblasts; format: cell-based; details: 2D cell cultures
Excerpt: The therapeutic activity and selectivity of Ir(III)-BZQ nucleoside was confirmed by measuring LD50 values against MB-468 cells (high accumulation), MDA-MB-231 (low accumulation), and normal fibroblasts using 2D cell cultures (Table 1, below).

MDA-MB-453 = assay: Uptake/fluorescence in 3D TNBC model MDA-MB-453; format: cell-based
Protocol: (§2) The theranostic activity of […] was also confirmed using 3D models of triple negative breast cancer (TNBC) (MDA-MB-453, MDA-MB-468, BT-549, MDA-MB-231). TNBC cells were chosen due to the poor prognosis caused by their aggressive nature and limited treatment options. 3D cancer cells were treated with 10 μM Ir(III)-BZQ nucleoside for 24 hours prior to microscopy analyses.
Two (2) new Iridium-nucleosides designated Ir(III)-PPY-nucleoside (small, hydrophobic) and Ir(III)-PBO nucleoside (small, hydrophilic) were synthesized and tested as cancer imaging agents. FIG. 14 compares the imaging properties of these two analogs versus our lead agent, Ir(III)-BZQ nucleoside (small, hydrophobic). Experiments were performed treating MDA-MB-453 cells with 1 μM of each compound for 3 days. […] This phenomenon precludes its further development as a tumor margin imaging agent as it poorly defines the entire 3D mass as compared to Ir(III)-BZQ nucleoside and Ir(III)-PPY nucleoside.

MDA-MB-468 = assay: Uptake/fluorescence in 3D TNBC model MDA-MB-468; format: cell-based; details: 3D MB-468, 10 μM, 24 hours
Protocol: as §2

MDA-MB-468 cells = assay: Dual parameter flow cytometry (Annexin V / propidium iodide) apoptosis; format: cell-based; details: MDA-MB-468, variable concentrations
Excerpt: Dual parameter flow cytometry employing Annexin V and propidium iodide staining was used to measure apoptosis in MDA-MB-468 cells treated with variable concentrations of Ir(III)-BZQ nucleoside. […] Microscopy imaging verifies an increase in green fluorescence caused by the accumulation of Ir(III)-BZQ nucleoside and correlates with the dose-dependent increase in apoptosis caused by the agent.

[4] = test system: MT1A2 cells (derived from PyMT); assay: Uptake/fluorescence in MT1A2 cells; format: cell-based; details: MT1A2, 10 μM, 24 hours
MDA-MB-231 = assay: Uptake/fluorescence in 3D TNBC model MDA-MB-231; format: cell-based; details: 3D MB-231, 10 μM, 24 hours
Protocol: as §2

BT-549 = assay: Uptake/fluorescence in 3D TNBC model BT-549; format: cell-based; details: 3D BT-549, 10 μM, 24 hours
Protocol: as §2

[5] = test system: cervical cancer cells (KB3-1 cell line); assay: Cytotoxic effects in KB3-1 cells; format: cell-based, human; details: KB3-1, after 24 hours
Excerpt: (§3) Several Iridium-containing nucleosides were synthesized and their imaging and anti-cancer activities were characterized. One non-limiting example of a compound is designated as Ir(III)-PPY nucleoside and shown in FIG. 2 next to deoxyadenosine. The synthetic design relies on the catalyzed [3+2] cycloaddition of azides to terminal alkynes. In this design, pyridyl triazoles covalently link the metal atom to the deoxyribose and this prevents metal dissociation from the complex. The cellular uptake of Ir(III)-PPY nucleoside into cervical cancer cells (KB3-1 cell line) was evaluated by treating cells with variable concentrations of Ir(III)-PPY nucleoside (0-50 μM). At times ranging from 4 to 24 hours, fluorescence microscopy images were taken using an excitation wavelength (λex) of 340 nm and an emission wavelength (λem) of 480 nm. […] The uptake of low concentrations (10 μM) of Ir(III)-PPY nucleoside can be visualized as early as 4 hours post treatment. Ir(III)-PPY nucleoside produces weak cytotoxic effects (IC50˜50 μM) after 24 hours. Thus, the cellular uptake can be measured on short time scales (Δt<12 hours) without complications arising from effects on cell viability.

[6] = test system: cervical cancer cells (KB3-1 cell line); assay: Cellular uptake into KB3-1 cells by fluorescence microscopy; format: cell-based, human
Protocol: FIG. 3 includes fluorescence microscopy images of the dose-dependent uptake of Ir(III)-PPY nucleoside in the human cancer cell line, KB3-1, particularly showing increased Ir(III)-PPY nucleoside (green) as a function of increasing concentration (Δt=4 hours).
as §3, with “Ir(III)-PPY nucleoside produces weak cytotoxic effects (IC50˜50 μM) after 24 hours.” left out

normal fibroblasts [7] = assay: Selective uptake in co-culture, normal fibroblasts, fluorescent microscopy; format: cell-based; details: co-cultured with RFP-U87, 10 μM, 4 hours
Protocol: (§4) Fluorescent microscopy was then used to validate that the uptake of Ir(III)-PPY nucleoside is selective for cancer cells. FIG. 4 compares the uptake of Ir(III)-PPY nucleoside using a human brain cancer cell line, U87, that expresses red fluorescent protein (RFP) versus normal fibroblasts. In these experiments, RFP-U87 cells were co-cultured with normal fibroblasts overnight and then treated with 10 μM Ir(III)-PPY nucleoside for 4 hours. […] Similar results were obtained at longer time intervals encompassing 24 hours incubation with Ir(III)-PPY nucleoside (data not shown).

[8] = test system: human brain cancer cell line, U87, that expresses red fluorescent protein (RFP); assay: Selective uptake in co-culture, RFP-U87 cells, fluorescent microscopy; format: cell-based; details: RFP-U87 co-cultured with normal fibroblasts, 10 μM, 4 hours
Excerpt: FIG. 4 includes microscopy images showing co-localization of Ir(III)-PPY nucleoside in glioblastoma cells expressing red-fluorescent protein (RFP-U87).
as §4

[9] = U87, 10 μM, three days vs 1 day

CC1(C)C(/C=C/C=C/C=C/C=C2\N(CCCCS(=O)(=O)O)c3ccc4ccccc4c3C2(C)C)=[N+](CCCCS(=O)(=O)[O-])c2ccc3ccccc3c21 [Indocyanine green, reference compound]
fluorescence emission in the red spectral range (600-700 nm), direct comparison (brain cancer cells (U87) [1]; 10 μM, 24 hours post-treatment): superior fluorescence emission activity | red fluorescence in U87 cells (brain cancer cells (U87) [1]; 1 and 10 μM, after 24 hours, 10× magnification): dose-and time dependent increase in red fluorescence | fluorescence emission activity in the red spectral range (600-700 nm) relative to Ir(III) BZQ nucleoside (brain cancer cells (U87) [1]; U87, identical concentrations (1 and 10 μM), 24 hours): ~5 times | cell-killing / therapeutic activity (brain cancer cells (U87) [2]; 1 to 3 days treatment): no detectable therapeutic activity | overall size of the 3D masses (brain cancer cells (U87) [2]; U87, 10 μM, 1 to 3 days treatment): increases as a function of time

F[P-](F)(F)(F)(F)F.OCC1OC(n2cc(-c3ccccn3)nn2)CC1O.c1cnc2c(c1)ccc1ccc[c]([Ir][c]3cccc4ccc5cccnc5c34)c12 [Ir(III)-BZQ nucleoside]
cytotoxic effects (LD50) (normal fibroblasts [3]): minimal cytotoxic effects | fluorescence signals (uptake and accumulation) (MDA-MB-453; 3D MB-453, 10 μM, 24 hours): high fluorescence signals | fluorescence intensity compared to Ir(III)-PPY nucleoside and Ir(III)-PBO nucleoside (MDA-MB-453; MDA-MB-453, 1 μM, 3 days): ~5 fold | imaging activity among the three compounds (MDA-MB-453; MDA-MB-453, 1 μM, 3 days): superior activity | fluorescence signals (uptake and accumulation) (MDA-MB-468): high fluorescence signals | apoptosis (MDA-MB-468 cells): increase in both early- and late-stage apoptosis | necrotic cell death (MDA-MB-468 cells): without causing necrotic cell death | fluorescence emission in the green spectral range (500-600 nm), direct comparison (brain cancer cells (U87) [1]; 10 μM, 24 hours post-treatment): superior fluorescence emission | imaging activity amongst the three compounds tested (brain cancer cells (U87) [1]; U87 3D masses, 1 μM, 24 hours): superior activity | red fluorescence (brain cancer cells (U87) [1]; U87 3D masses, 1 μM, 24 hours): display red fluorescence | overall intensity in green fluorescence relative to Ir(III)-PPY nucleoside (brain cancer cells (U87) [1]; U87 3D masses, 1 μM, 24 hours, equivalent concentrations): about 5 times | fluorescence signal in 2D cells (brain cancer cells (U87) [1]; U87, 10 μM, 10× magnification): Little to no fluorescence signal | fluorescence signals in 3D cancerous masses (brain cancer cells (U87) [1]; U87, 10 μM, after 1 day, 10× magnification): intense red and green fluorescence signals | fluorescence signals in 3D masses (brain cancer cells (U87) [1]; U87, 10 μM, after three days): still show intense fluorescence signals | cell-killing / therapeutic activity (brain cancer cells (U87) [2]; 1 to 3 days treatment): possesses cell-killing activity | cell-killing effect on 2D cells (brain cancer cells (U87) [2]; [9]): reduction in the number of 2D cells | cell-killing effect on 3D masses (brain cancer cells (U87) [2]; [9]): death of cells that reside at the outer fringe of the cancerous mass | fluorescence signals (uptake and accumulation) [4]: no fluorescence signals | fluorescence signals (uptake and accumulation) (MDA-MB-231): weak fluorescence | fluorescence signals (uptake and accumulation) (BT-549): weak fluorescence

F[P-](F)(F)(F)(F)F.OCC1OC(n2cc(-c3ccccn3)nn2)CC1O.c1ccc(-c2ncco2)[c]([Ir][c]2ccccc2-c2ncco2)c1 [Ir(III)-PBO nucleoside]
fluorescence pattern in cells (MDA-MB-453; MDA-MB-453, 1 μM, 3 days): unique punctates | fluorescence pattern in cells (brain cancer cells (U87) [1]; U87 3D masses, 1 μM, 24 hours): unique punctates | red fluorescence (brain cancer cells (U87) [1]; U87 3D masses, 1 μM, 24 hours): not observed

F[P-](F)(F)(F)(F)F.OCC1OC(n2cc(-c3ccccn3)nn2)CC1O.c1ccc(-c2cccc[c]2[Ir][c]2ccccc2-c2ccccn2)nc1 [Ir(III)-PPY nucleoside]
IC50 [5]: ~50 µM | intracellular accumulation (green fluorescence) ([6]; KB3-1, 0-50 μM, 4 to 24 hours, λex 340 nm, λem 480 nm): dose-dependent | time post treatment at which uptake can be visualized ([6]; KB3-1, 10 μM): ≤ 4 h | red fluorescence (brain cancer cells (U87) [1]; U87 3D masses, 1 μM, 24 hours): not observed | uptake in normal fibroblasts (normal fibroblasts [7]): no uptake | uptake in U87 cancer cells [8]: rapidly accumulates
